Assay results taken from PMC10017155 (Aging and Disease, 2023).
“Also recorded” adds a separate entry of the source. Peptide text beside a SMILES is read from it.

Assays:
[1] = tested on: C. elegans CL2120; experiment: Amyloid load by X-34 staining in C. elegans CL2120; assay type: in vivo
Protocol: (§1) C. elegans CL2120 (dvIs14 [(pCL12) unc-54::beta 1-42 +(pCL26) mtl-2::GFP]) and C. elegans CL2122 (dvIs15 [(pPD30.38) unc-54(vector) + (pCL26) mtl-2::GFP]) strains were obtained from the Caenorhabditis Genetics Center. The worms were handled according to standard methods without FUDR [18]. E. coli OP50 bacteria were grown overnight in Luria-Bertani broth and 50µl were spread atop NGM or NGMZn plates. NGMZn has 20μM ZnSO4. Seeded plates were incubated at 30°C for ~16 hours and then for 1-2 hours at 15 or 25°C before worms were transferred. Lifespan and paralysis experiments (see below) were performed at 25°C for enhanced expression of Aβ. This temperature is standard when studying the effects of Aβ on C. elegans CL2120 strain [19].
(§2) Nematodes were purified from unwanted microflora by the alkaline hypochlorite method, grown to the L4 stage at 15°C on NGM plates with bacterial lawn. […] Further, all contents were transferred to Petri plates with NGM or NGMZn with OP50 and placed in a temperature-controlled incubator at 25°C. Next day, worms were transferred onto similar media with a bacterial substrate and the lifespan was determined at 25°C (Supplementary Tables 3, 4).
Post-hoc analysis was performed with the Tukey test.
Figure 2.

[2] = tested on: H6R-Aβ16; experiment: NMR titration, H6R-Aβ16 dimer with HAEE and Zn2+; assay type: binding, human; details: 1H NMR, H6R-Aβ16 1.6 mM, pH 6.8, 0.5 equivalent ZnCl2, titration by HAEE; V12 methyl signal at 0.2 ppm
Protocol: (§3) Peptides Aβ16, H6R-Aβ16 and isoD7-Aβ16 at the concentration of 0.2 - 8mM were dissolved in 10-20 mM bis-Tris-d19 (2,2-Bis(hydroxymethyl)-2,2′,2"-nitrilotrie-thanol-d19 with 98% ^2D enrichment) buffer solution (pH 6.8). Sodium salt of 3-(trimethylsilyl) propionic-2,2,3,3-d4 acid (DSS) at a concentration of 10-20 μM was added as the standard. NMR spectra were measured at 278 K in 90% H2O/10% D2O with Bruker AVANCE 600 MHz spectrometer equipped with triple resonance (^1H, ^13C and ^15N) pulsed field z gradient probe. 1D NMR spectra were processed and analyzed using the Mnova software (Mestrelab Research, Spain). In order to monitor peptide-peptide interactions NMR titration experiments were carried out. […] 1D spectra were recorded for each titration point.
Figure 1. Interaction of HAEE with beta-amyloid. (A) A model for the contribution of isoD7-Aβ to AD pathology, and the possible ways of preventing its deleterious effects. Aβ spontaneously converts into isoD7-Aβ, which is accumulated over age, likely due to reduced Aβ clearance. Isomerized Aβ promotes AD pathology, potentially via formation of Zn-bound complexes serving as the seeds for a generation of neurotoxic oligomers. […] The amount of dimeric form is determined by the intensity of its characteristic signal at 0.2 ppm. […]

[3] = tested on: Aβ16; experiment: NMR titration, Aβ16 with HAEE and Zn2+; assay type: binding; details: 278 K, pH 6.8, Zn2+
Protocol: as §3

[4] = tested on: C. elegans CL2120; experiment: Lifespan analysis, C. elegans CL2120; assay type: in vivo; details: for Mean survival: Aβ42 or isoD7-Aβ42 40 μM, HAEE 4 mM; for Increase/decrease in lifespan: vs control of same repeat
Protocol: as §1, §2
(§4) Lifespans were monitored at 25°C as described previously. All experiments were repeated at least three times and ≈130 worms were used for each experiment. Details regarding repeated experiments and amounts of animals used for experiments are summarized in Supplementary Tables 3, 4. In all cases, stage L4 worms were used at t = 0 for lifespan analyses and worms were transferred every other day to new agar plates. […] Escaped animals or animals with internal hatching were not included in lifespan calculation. Data was analyzed and Boltzmann sigmoid survival curves generated using the SciDAVis statistical analysis software package. Mean lifespans were compared in Microsoft Excel using the Student t test, applying one-tailed distribution and two-sample equal variance. All lifespan plots represent the composites of all independent experiments tabulated in Supplementary Tables 3, 4. Mean percentage change ±SD of lifespan after treatment, relative to untreated control are indicated in each graph in the same color as the curve.

[5] = tested on: C. elegans CL2122; experiment: Lifespan analysis, C. elegans CL2122 (transgenic control); assay type: in vivo; details: for Increase/decrease in lifespan: vs control of same repeat
Protocol: as §1, §2, §4

[6] = HAEE 4 mM + isoD7-Aβ42 40 µM, NGMZn, X-34
[7] = CL2120, NGM (no Zn), replicate 1
[8] = CL2120, NGM (no Zn), replicate 2
[9] = CL2120, NGM (no Zn), replicate 3
[10] = CL2122, NGM (no Zn), replicate 1
[11] = CL2122, NGM (no Zn), replicate 2
[12] = CL2122, NGM (no Zn), replicate 3

**Q.** For `CC(=O)N[C@@H](Cc1c[nH]cn1)C(=O)N[C@@H](C)C(=O)N[C@@H](CCC(=O)O)C(=O)N[C@@H](CCC(=O)O)C(N)=O` [HAEE, Ac-HAEE-NH2] (Ac-HAEE-NH2), which “Effect of HAEE on isoD7-Aβ42/Zn2+-induced amyloidosis” value [1, 6] is on record?
**A.** Its value is “completely negated; also recorded: abrogates this pathological process; also recorded: fails to induce amyloidosis”.

**Q.** What about the “Number of plaques and plaque area” value [1, 6] of the same molecule?
**A.** Its value is “reduced back to the untreated group values”.

**Q.** And the “Effect on endogenous amyloidosis in untreated transgenic C. elegans” value ([1]; HAEE alone)?
**A.** Its value is “did not affect the endogenous amyloidosis”.

**Q.** What about the “Amount of dimeric form of H6R-Aβ16 upon addition of HAEE” value [2] of the same molecule?
**A.** The value was “decrease in the amount of dimeric H6R-Aβ16; also recorded: disappearance of the dimeric form; also recorded: shifts the equilibrium between monomeric and dimeric Aβ towards its monomeric form”.

**Q.** What about the “Signal at 0.2 ppm (characteristic of the dimeric form of the Aβ metal binding domain)” value ([3]; 1H NMR) of the same molecule?
**A.** Its value is “eliminated the signal”.

**Q.** What about the “Zinc-dependent dimerization of Aβ16” value ([3]; NMR) of the same molecule?
**A.** Its value is “inhibits”.

**Q.** And the “Effect of HAEE itself on lifespan” value ([4]; CL2120, HAEE 4 mM)?
**A.** The value was “no effect”.

**Q.** And the Mean survival ([4]; CL2120, NGM (no Zn), 25°C, mean ± SD of 3 experiments)?
**A.** Its Mean survival is 8.83 ± 0.31 days.

**Q.** And the 50% survival [4, 7]?
**A.** The 50% survival was 8.5 days.

**Q.** What about the 50% survival [4, 8] of the same molecule?
**A.** Its 50% survival is 8.9 days.

**Q.** And the 50% survival [4, 9]?
**A.** Its 50% survival is 9.1 days.

**Q.** And the “Mean increase/decrease in lifespan” value ([4]; CL2120, NGM (no Zn), vs control NGM, mean ± SD of 3 experiments)?
**A.** Its value is 1.53±0.63%.

**Q.** What about the Increase/decrease in lifespan [4, 7] of the same molecule?
**A.** Its Increase/decrease in lifespan is 1.19%.

**Q.** What about the Increase/decrease in lifespan [4, 8] of the same molecule?
**A.** The Increase/decrease in lifespan was 1.14%.

**Q.** And the Increase/decrease in lifespan [4, 9]?
**A.** The Increase/decrease in lifespan was 2.25%.

**Q.** And the “Effect on lifespan” value ([4]; CL2120, NGM, without Zn2+, 25°C)?
**A.** Its value is “do not affect”.

**Q.** And the Mean survival ([4]; CL2120, NGMZn (ZnSO4 20 μM), 25°C, mean ± SD of 3 (isoD7-Aβ42: 5) experiments)?
**A.** Its Mean survival is 9.2 ± 0.7 days.

**Q.** And the “Effect of HAEE on lifespan shortened by isoD7-Aβ42 + Zn2+” value ([4]; CL2120, NGMZn, HAEE 4 mM + isoD7-Aβ42 40 μM)?
**A.** Its value is “removes the negative effect; also recorded: completely restored the shortened lifespan”.

**Q.** What about the 50% survival ([4]; CL2120, NGMZn, replicate 1) of the same molecule?
**A.** Its 50% survival is 9.3 days.

**Q.** What about the 50% survival ([4]; CL2120, NGMZn, replicate 2) of the same molecule?
**A.** Its 50% survival is 9 days.

**Q.** And the 50% survival ([4]; CL2120, NGMZn, replicate 3)?
**A.** The 50% survival was 9.3 days.

**Q.** What about the “Mean increase/decrease in lifespan” value ([4]; CL2120, NGMZn, vs control NGMZn, mean ± SD of 3 (isoD7-Aβ42: 5) experiments) of the same molecule?
**A.** Its value is 1.85 ±0.66%.

**Q.** What about the Increase/decrease in lifespan ([4]; CL2120, NGMZn, replicate 1) of the same molecule?
**A.** Its Increase/decrease in lifespan is 1.09%.

**Q.** What about the Increase/decrease in lifespan ([4]; CL2120, NGMZn, replicate 2) of the same molecule?
**A.** Its Increase/decrease in lifespan is 2.27%.

**Q.** What about the Increase/decrease in lifespan ([4]; CL2120, NGMZn, replicate 3) of the same molecule?
**A.** The Increase/decrease in lifespan was 2.20%.

**Q.** What about the “Effect of HAEE itself on lifespan” value ([5]; CL2122, HAEE 4 mM) of the same molecule?
**A.** Its value is “no effect”.

**Q.** And the Mean survival ([5]; CL2122, NGM (no Zn), Aβ42 or isoD7-Aβ42 40 μM, HAEE 4 mM, 25°C, mean ± SD of 3 experiments)?
**A.** The Mean survival was 9.07 ± 0.25 days.

**Q.** And the 50% survival [5, 10]?
**A.** Its 50% survival is 8.8 days.

**Q.** And the 50% survival [5, 11]?
**A.** The 50% survival was 9.3 days.

**Q.** What about the 50% survival [5, 12] of the same molecule?
**A.** The 50% survival was 9.1 days.

**Q.** And the “Mean increase/decrease in lifespan” value ([5]; CL2122, NGM (no Zn), vs control NGM, mean ± SD of 3 experiments)?
**A.** Its value is 0.03±1.89%.

**Q.** And the Increase/decrease in lifespan [5, 10]?
**A.** The Increase/decrease in lifespan was 1.15%.

**Q.** What about the Increase/decrease in lifespan [5, 11] of the same molecule?
**A.** The Increase/decrease in lifespan was 1.09%.

**Q.** And the Increase/decrease in lifespan [5, 12]?
**A.** The Increase/decrease in lifespan was -2.15%.

**Q.** What about the “Effect on lifespan” value ([5]; CL2122, NGM, without Zn2+, 25°C) of the same molecule?
**A.** The value was “do not affect”.

**Q.** What about the 50% survival ([5]; CL2122, NGMZn, replicate 1) of the same molecule?
**A.** The 50% survival was 8.8 days.

**Q.** What about the 50% survival ([5]; CL2122, NGMZn, replicate 2) of the same molecule?
**A.** Its 50% survival is 9.1 days.

**Q.** What about the 50% survival ([5]; CL2122, NGMZn, replicate 3) of the same molecule?
**A.** The 50% survival was 8.9 days.

**Q.** What about the “Mean increase/decrease in lifespan” value ([5]; CL2122, NGMZn, vs control NGMZn, mean ± SD of 3 experiments) of the same molecule?
**A.** Its value is -1.05 ±2.87%.

**Q.** And the Increase/decrease in lifespan ([5]; CL2122, NGMZn, replicate 1)?
**A.** Its Increase/decrease in lifespan is 1.15%.

**Q.** And the Increase/decrease in lifespan ([5]; CL2122, NGMZn, replicate 2)?
**A.** Its Increase/decrease in lifespan is 0%.

**Q.** And the Increase/decrease in lifespan ([5]; CL2122, NGMZn, replicate 3)?
**A.** The Increase/decrease in lifespan was -4.3%.
